Blank lines part the entries; values can stand above or below the compound they belong to.
Experiments:
[1] = test system: RES-LTC chondrosarcoma cell line; experiment: Modified MTT assay for metabolic activity; format: cell-based; settings: 48 hour timepoint; for MTT metabolic activity: FIG. 3
Protocol: Assays: Modified MTT assay for metabolic activity (absorbance).
(§1) Assay data analysis: Expressed as % of the positive controls for MTT and picogreen. MTT absorbance measures then normalized to the μgDNA/ml generated by the picogreen assay.
(§2) Cell cultures: RES-LTC chondrosarcoma cell line. Expresses hyaline-like chondrocyte phenotype and reliably produces large, homogeneous cell populations
(§3) Cell cultures in 96 well plates. Each compound, at a fixed concentration, was added in triplicate for each assay. MTT and picogreen assays in separate plates (assays interfere with each other). All plates treated together. Assays run at 48 hour timepoint. Microscopy performed to confirm findings.

[2] = test system: RES-LTC chondrosarcoma cell line; experiment: Quantitative picogreen assay for cell proliferation; format: cell-based; settings: 10 mM, 48 hour timepoint, FIG. 4
Protocol: Quantitative picogreen for cell proliferation (μgDNA/ml).
as §1, §2, §3

[3] = test system: rabbit stifle joints; experiment: Single intra-articular injection toxicity model in rabbit stifles; format: in vivo, New Zealand White rabbits; settings: for Synovial inflammation scoring: versus PBS-injected stifles, FIG. 7
Source text: Rabbits were euthanized two weeks post-injection. Both left and right stifles were harvested and immediately fixed in 10% neutral buffered formalin, then set for histological processing. Five-micron thick slides from each knee were stained with Hematoxylin & Eosin and Safranin-O.

[4] = test system: human knee; settings: 10 minutes after intraarticular injection of 25 ml of 5 mM solution in PBS, 3 Tesla, FIG. 9
Protocol: Coronal T1-weighted MR images of a human knee were taken in a human cadaver. Coronal T1-weighted MR contrast images were also taken ex vivo in a human cadaver 10 minutes after intraarticular injection of 25 ml of a 5 mM solution of DAB-4 citrate diluted in PBS. […] All images were performed on a Siemens Skyra 3 Tesla magnet using a 15 channel transmit/receive QED knee coil. (14 cm FOV (field of view); 3 mm thick slice; 384×384 matrix; TR 800 ms; TE 8.6 ms; Turbo factor of 2; receiver bandwidth 350 Hz/pixel.)

[5] = test system: glycosaminoglycans (GAG) in the cartilage; experiment: T1 value map versus Safranin-O/fast green histology of cartilage-bone plug equilibrated in contrast agent (GAG targeting); settings: human tibial plateau cartilage-bone plug equilibrated in contrast agent
Source text: Cartilage-bone plug excised from a human tibial plateau that was retrieved from total knee replacement surgery was equilibrated in DAB-4 linked nitroxide citrate. T1 value map (as acquired for FIG. 1) is compared to histology in FIG. 2: • a) T1 value map: orange color is lower T1 value indicating more contrast agent and more glycosaminoglycans (GAG) in the cartilage. • b) Histology of the same specimen stained with Safranin-O/fast green.

[6] = two weeks post-injection, histology

- MTT data normalized to μgDNA/ml (health of the cells) ([1]; 10 mM, FIG. 5): abnormally high
Compound: CNC[C@H](O)[C@@H](O)[C@H](O)[C@H](O)CO.CNC[C@H](O)[C@@H](O)[C@H](O)[C@H](O)CO.O=C([O-])CN(CCN(CC(=O)[O-])CC(=O)O)CCN(CC(=O)[O-])CC(=O)O.[Gd+3] [Magnevist]
- Picogreen cell proliferation [2]: low cell proliferation
- clinical signs of inflammation or lameness ([3]; single intra-articular injection, two weeks observation): No animals presented clinical signs of inflammation or lameness
- Modified Mankin scoring (structural damage / joint degeneration) ([3]; two weeks post-injection, histology, FIG. 6): did not uncover any signs of structural damage and/or degenerative response
- Synovial inflammation scoring [3, 6]: no difference between Magnevist or DAB-4 linked nitroxide and the PBS-injected stifles

Compound: Citric Acid Salt of DAB-4 Linked Nitroxide [DAB-4 linked nitroxide citrate]
- T1-weighted MR contrast of joint fluid and cartilage surfaces [4]: the joint fluid (asterisk) is now bright and outlines the cartilage surfaces
- detection of cartilage defect on T1-weighted MR image [4]: A partial thickness cartilage defect (arrow) is easily identified
- agreement of T1 value map with histology stain for GAG concentration [5]: high GAG concentration in the same areas indicated by DAB-4 linked nitroxide on the T1 value map and the stain on the histology map

Compound: DAB-dendrimer-(NH-3-CO-PROXYL)4 [DAB-4 linked nitroxide]
- MTT metabolic activity ([1]; 1-10 mM): less metabolic activity than positive controls but greater than for DAB-8 linked nitroxide
- agreement of T1 value map with histology stain for GAG concentration [5]: high GAG concentration in the same areas as indicated by DAB-4 linked nitroxide on the T1 value map and the stain on the histology map
- Synovial inflammation scoring [3, 6]: no difference between Magnevist or DAB-4 linked nitroxide and the PBS-injected stifles

Compound: DAB-dendrimer-(NH-3-CO-PROXYL)8 [DAB-8 linked nitroxide]
- MTT metabolic activity ([1]; concentrations above 1 mM): less metabolic activity than positive controls (untreated), or DAB-4 linked nitroxide and Magnevist

— patent US9943613B2 (priority 2012, dated 2018)
